ChEMBL document CHEMBL1201862, “PubChem BioAssay data set” (2004)
The source made the active and inactive calls. Cut-off read from the data, not from the text of the source: actives have a measured EC50 and inactives only a lower limit.

Columns and labels:
[1] = inhibitors of intracellular T. cruzi replication, confirmation, NIH3T3 host cells, beta-gal luminescence (AID 2044); type: functional, cell-based;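 note: intracellular parasites grown in NIH/3T3 mouse fibroblasts as host cells; luminescent beta-galactosidase reporter signal from transgenic T. cruzi replicating inside host cells; inhibitors lower the luminescence signal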
[2] = cytotoxicity toward NIH3T3 fibroblasts, dose response, counter-screen, cell-based, ATP luminescence, mouse fibroblasts (AID 2010); type: functional;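 note: cells exposed to compound for about 90 hours before reading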
[3] = tested on: Streptococcus sp. 'group A'; assay: growth inhibition of control SK(-) GAS strain, dose response, counter-screen for streptokinase expression inhibitor project, luminescence, kanamycin, BacTiterGlo, confirmation (AID 1900); type: functional, organism-based
Streptococcus = assay: Group A Streptococcus viability loss, dose response, counter-screen for streptokinase expression inhibitor project, luminescence, BacTiterGlo (AID 1915); type: functional, organism-based;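 note: potency for reduction of bacterial viability or growth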

Structure (SMILES) | EC50 [1] | EC50 [2] | EC50 [3] | EC50 (Streptococcus)
Cc1ccc2cc3cc(C(=O)N(CC(=O)NC4CCCC4)c4cccc(C)c4C)sc3nc2c1 | 1.61 µM (active) | > 30 µM (not active) |  | 
O=C(Nc1ccn(Cc2c(F)c(F)cc(F)c2F)n1)c1ccc(COc2ccccc2Cl)cc1 | 0.867 µM (active) | > 60 µM (inconclusive) |  | 
OCC1(Cc2ccc(Cl)cc2)CCN(Cc2ccc(Oc3ncccn3)cc2)CC1 | 0.966 µM (active) | > 60 µM (inconclusive) |  | 
O=C(O)c1ccc(N=Nc2c(O)[nH]c3ccc(Br)cc23)cc1 |  |  | 4.19 µM (active) | 8.12 µM (active)
CN(C)CCCNc1oc(-c2ccccc2Cl)nc1S(=O)(=O)c1ccc(F)cc1 | 0.135 µM (active) | 24.1 µM (active) |  | 
O=C(Nc1cccc(F)c1)NC1CCN(Cc2ccccc2)CC1 | 0.736 µM (active) | > 60 µM (not active) |  | 
CC(=O)N(CCCN(C)C)c1nc2ccc(C)cc2s1 | 0.236 µM (active) | > 60 µM (not active) |  | 
CN(CC1CCCO1)S(=O)(=O)c1ccc(C(=O)Nc2nnc(-c3ccccc3)o2)cc1 (configuration not stated) |  |  | 4.14 µM (active) | 12.2 µM (active)
CN(CC(=O)Nc1ccc(S(=O)(=O)N2CCCC2)cc1)Cc1ccc(Cl)c(Cl)c1 | 2.04 µM (active) | > 60 µM (not active) |  | 
COc1ccc(-n2nc(C)c3c(O)c4c(nc32)CCCC4)cc1 | 0.21 µM (active) | > 60 µM (not active) |  | 
CCC(C)(C)n1nnnc1C(c1cccs1)N1CCN(c2nc3ccccc3s2)CC1 (configuration not stated) | 1.96 µM (active) | 8.58 µM (active) |  | 
c1ccc(Cc2noc(CN3CCN(CCOc4ccccc4)CC3)n2)cc1 | 1.09 µM (active) | > 60 µM (not active) |  | 
Cc1ccc([N+](=O)[O-])cc1NC(=O)CN(C1CCCCC1)S(=O)(=O)c1ccc(Cl)cc1 | 3.08 µM (active) | > 60 µM (not active) |  | 
CC(CCc1ccccc1)NC(=O)c1ccc(NC(=O)c2cccc(Br)c2)cc1 (configuration not stated) | 2.02 µM (active) | > 60 µM (not active) |  | 
CC(=O)NC(=S)Nc1ccc(S(=O)(=O)N(C)Cc2ccccc2)cc1 | 1.22 µM (active) | > 30 µM (not active) |  | 
CN1CCN(c2ccc(S(=O)(=O)N3CCCCC3)cc2NC(=O)COc2ccc(F)cc2)CC1 | 0.538 µM (active) | > 60 µM (not active) |  | 
Cc1cc(C)c2nc(N3C(=O)C(O)=C(C(=O)c4ccco4)C3c3ccco3)sc2c1 (configuration not stated) |  |  | 2.52 µM (active) | 5.86 µM (active)
CCC(=O)Nc1ccc(-c2nnc(-c3ccccc3)o2)cc1 | 1.55 µM (active) | > 60 µM (not active) |  | 
Cc1cc2c(n1-c1ccc(Br)cc1)CC(C)(C)CC2=O | 2.05 µM (active) | > 60 µM (not active) |  | 
COc1ccc(CN2CCCC(C(=O)c3ccc(Cl)cc3)C2)cc1Cn1cncn1 (configuration not stated) | 0.508 µM (active) | > 30 µM (not active) |  | 
O=C(COc1ccccc1C(=O)NCc1ccncc1)Nc1ccc(Br)cc1 | 2.15 µM (active) | > 60 µM (not active) |  | 
